Patent publication US11053204B2, “Pyrimidinyloxy benzene derivatives as herbicides” (FMC Corporation, priority 2015, dated 2021)

How the values were obtained:
Type in all cases: in vivo
[1] = test system: kochia (Kochia scoparia); assay: Test C postemergence, plant response rating; settings: for Kochia plant response rating: scale 0 to 100 (0 no effect, 100 complete control)
Outline: (§1)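 Pre-emergence: seeds sown in loam soil–sand blend or silt loam and sprayed with test chemicals in a non-phytotoxic solvent mixture with surfactant. Post-emergence: plants 2 to 18 cm (1- to 4-leaf stage) in peat-based potting medium, same formulation. Greenhouse 13 to 15 d; visual rating 0 (no effect) to 100 (complete control) versus controls.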

[2] = test system: chickweed (common chickweed, Stellaria media); assay: Test C postemergence, plant response rating; settings: for Chickweed plant response rating: scale 0 to 100 (0 no effect, 100 complete control)
Outline: as §1

[3] = test system: morningglory (Ipomoea coccinea); assay: Test C postemergence, plant response rating; settings: for Morningglory plant response rating: scale 0 to 100 (0 no effect, 100 complete control)
Outline: as §1

[4] = test system: kochia (Kochia scoparia); assay: Test A postemergence, visual injury rating; settings: 0 is no effect, 100 is complete control; for Kochia plant response rating: 0 to 100 scale, approximately 10 days
Outline: (§2)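 Pre- and postemergence greenhouse screen. Soil: loam + sand. Spray carrier: solvent mixture, non-phytotoxic, with surfactant. Post timing at 1–2 leaves, height 2–10 cm. Readout: visual injury on a 0–100 scale roughly 10 days after application, untreated plants as reference.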

[5] = test system: Italian ryegrass (Lolium multiflorum); assay: Test A postemergence, visual injury rating; settings: 0 is no effect, 100 is complete control; for Ryegrass, Italian plant response rating: 0 to 100 scale, approximately 10 days
Outline: as §2

[6] = test system: ragweed (common ragweed, Ambrosia elatior); assay: Test A postemergence, visual injury rating; settings: 0 is no effect, 100 is complete control; for Ragweed plant response rating: 0 to 100 scale, approximately 10 days
Outline: as §2

[7] = test system: corn (Zea mays); assay: Test A postemergence, visual injury rating; settings: 0 is no effect, 100 is complete control
Outline: as §2

[8] = test system: wheat (Triticum aestivum); assay: Test A postemergence, visual injury rating; settings: 0 is no effect, 100 is complete control; for Wheat plant response rating: 0 to 100 scale, approximately 10 days
Outline: as §2

[9] = test system: blackgrass (Alopecurus myosuroides); assay: Test A postemergence, visual injury rating; settings: 0 is no effect, 100 is complete control
Outline: as §2

[10] = test system: pigweed (Amaranthus retroflexus); assay: Test A postemergence, visual injury rating; settings: 0 is no effect, 100 is complete control; for Pigweed plant response rating: 0 to 100 scale, approximately 10 days
Outline: as §2

[11] = test system: galium (catchweed bedstraw, Galium aparine); assay: Test A postemergence, visual injury rating; settings: 0 is no effect, 100 is complete control
Outline: as §2

[12] = test system: barnyardgrass (Echinochloa crus-galli); assay: Test A postemergence, visual injury rating; settings: 0 is no effect, 100 is complete control
Outline: as §2

[13] = test system: giant foxtail (Setaria faberii); assay: Test A postemergence, visual injury rating; settings: 0 is no effect, 100 is complete control
Outline: as §2

[14] = test system: kochia (Kochia scoparia); assay: Test A preemergence, visual injury rating; settings: for Kochia plant response rating: 0 to 100 scale (0 no effect, 100 complete control)
Outline: as §2

[15] = test system: pigweed (Amaranthus retroflexus); assay: Test A preemergence, visual injury rating; settings: for Pigweed plant response rating: 0 to 100 scale (0 no effect, 100 complete control)
Outline: as §2

[16] = test system: rice (Oryza sativa); assay: Test B flooded paddy test, plant response rating; settings: 250 g ai/ha; Flood; scale of 0 to 100 where 0 is no effect and 100 is complete control; 13 to 15 days
Outline: (§3)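 Visual injury ratings against untreated controls, taken 13 to 15 days after compound was added to paddy water standing 3 cm above the soil.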

[17] = test system: sedge, umbrella (small-flower umbrella sedge, Cyperus difformis); assay: Test B flooded paddy test, plant response rating; settings: 250 g ai/ha; Flood; scale of 0 to 100 where 0 is no effect and 100 is complete control; 13 to 15 days
Outline: as §3

[18] = test system: ducksalad (Heteranthera limosa); assay: Test B flooded paddy test, plant response rating; settings: 250 g ai/ha; Flood; scale of 0 to 100 where 0 is no effect and 100 is complete control; 13 to 15 days
Outline: as §3

[19] = test system: barnyardgrass (Echinochloa crus-galli); assay: Test B flooded paddy test, plant response rating; settings: 250 g ai/ha; Flood; scale of 0 to 100 where 0 is no effect and 100 is complete control; 13 to 15 days
Outline: as §3

[20] = 31 g ai/ha, 0 to 100 scale, approximately 10 days
[21] = 31 g ai/ha, 0 to 100 scale, 0 no effect, 100 complete control

SMILES	Plant response rating, Kochia ([1]; 31 g ai/ha, scale 0 to 100)	Kochia plant response rating ([1]; 62 g ai/ha)	Kochia plant response rating ([1]; 125 g ai/ha)	Plant response rating, Chickweed ([2]; 31 g ai/ha, scale 0 to 100)	Chickweed plant response rating ([2]; 62 g ai/ha)	Chickweed plant response rating ([2]; 125 g ai/ha)	Plant response rating, Morningglory ([3]; 31 g ai/ha, scale 0 to 100)	Morningglory plant response rating ([3]; 62 g ai/ha)	Morningglory plant response rating ([3]; 125 g ai/ha)	Corn plant response rating (0 to 100 scale) ([7]; 125 g ai/ha)	Blackgrass plant response rating (0 to 100 scale) ([9]; 125 g ai/ha)	Galium plant response rating (0 to 100 scale) ([11]; 125 g ai/ha)	Barnyardgrass plant response rating (0 to 100 scale) ([12]; 125 g ai/ha)	Foxtail, Giant plant response rating (0 to 100 scale) ([13]; 125 g ai/ha)	Kochia plant response rating ([14]; 125 g ai/ha)	Pigweed plant response rating ([15]; 125 g ai/ha)	Plant response rating, Rice [16]	Plant response rating, Sedge, Umbrella [17]	Plant response rating, Ducksalad [18]	Plant response rating, Barnyardgrass [19]	further results
O=C(OCC(F)(F)F)c1c(Br)cccc1Oc1ncc(Cl)cn1 [Compound 35]	40	60	90	40	45	50	50	60	60	20	40	60	10	40	30	100	0	60	50	0	Plant response rating, Kochia ([1]; 16 g ai/ha, scale 0 to 100): 5; Plant response rating, Chickweed ([2]; 16 g ai/ha, scale 0 to 100): 5; Plant response rating, Morningglory ([3]; 16 g ai/ha, scale 0 to 100): 40; Kochia plant response rating (0 to 100 scale) ([4]; 125 g ai/ha): 90; Kochia plant response rating (0 to 100 scale) ([4]; 500 g ai/ha): 100; Ryegrass, Italian plant response rating (0 to 100 scale) ([5]; 125 g ai/ha): 0; Ryegrass, Italian plant response rating (0 to 100 scale) ([5]; 500 g ai/ha): 40; Ragweed plant response rating (0 to 100 scale) ([6]; 125 g ai/ha): 0; Ragweed plant response rating (0 to 100 scale) ([6]; 500 g ai/ha): 0; Corn plant response rating (0 to 100 scale) ([7]; 500 g ai/ha): 30; Wheat plant response rating (0 to 100 scale) ([8]; 125 g ai/ha): 0; Wheat plant response rating (0 to 100 scale) ([8]; 500 g ai/ha): 20; Blackgrass plant response rating (0 to 100 scale) ([9]; 500 g ai/ha): 80; Pigweed plant response rating (0 to 100 scale) ([10]; 125 g ai/ha): 100; Pigweed plant response rating (0 to 100 scale) ([10]; 500 g ai/ha): 100; Galium plant response rating (0 to 100 scale) ([11]; 500 g ai/ha): 100; Barnyardgrass plant response rating (0 to 100 scale) ([12]; 500 g ai/ha): 80; Foxtail, Giant plant response rating (0 to 100 scale) ([13]; 500 g ai/ha): 100; Kochia plant response rating ([14]; 500 g ai/ha): 80; Pigweed plant response rating ([15]; 500 g ai/ha): 100
CCCC(=O)c1c(Br)cccc1Oc1ncc(Cl)cn1 [Compound 75]	85	90	98	85	90	98	15	20	65	80	40	80	90	90	80	100	35	95	95	40	Plant response rating, Kochia ([1]; 16 g ai/ha, scale 0 to 100): 75; Plant response rating, Chickweed ([2]; 16 g ai/ha, scale 0 to 100): 60; Plant response rating, Morningglory ([3]; 16 g ai/ha, scale 0 to 100): 5; Kochia plant response rating ([4]; 125 g ai/ha): 100; Kochia plant response rating (0 to 100 scale) ([4]; 500 g ai/ha): 100; Ryegrass, Italian plant response rating ([5]; 125 g ai/ha): 40; Ryegrass, Italian plant response rating (0 to 100 scale) ([5]; 500 g ai/ha): 70; Ragweed plant response rating ([6]; 125 g ai/ha): 30; Ragweed plant response rating (0 to 100 scale) ([6]; 500 g ai/ha): 40; Corn plant response rating (0 to 100 scale) ([7]; 500 g ai/ha): 90; Wheat plant response rating ([8]; 125 g ai/ha): 20; Wheat plant response rating (0 to 100 scale) ([8]; 500 g ai/ha): 70; Blackgrass plant response rating (0 to 100 scale) ([9]; 500 g ai/ha): 60; Pigweed plant response rating ([10]; 125 g ai/ha): 100; Pigweed plant response rating (0 to 100 scale) ([10]; 500 g ai/ha): 100; Galium plant response rating (0 to 100 scale) ([11]; 500 g ai/ha): 100; Barnyardgrass plant response rating (0 to 100 scale) ([12]; 500 g ai/ha): 100; Foxtail, Giant plant response rating (0 to 100 scale) ([13]; 500 g ai/ha): 100; Kochia plant response rating ([14]; 500 g ai/ha): 100; Pigweed plant response rating ([15]; 500 g ai/ha): 100
O=C(CCCC(F)(F)F)c1c(Br)cccc1Oc1ncc(Cl)cn1 [Compound 77]	100	100	100	80	100	100	85	90	80	30	50	100	90	90	100	100	0	100	85	15	Plant response rating, Kochia ([1]; 16 g ai/ha, scale of 0 to 100): 95; Plant response rating, Chickweed ([2]; 16 g ai/ha, scale of 0 to 100): 80; Plant response rating, Morningglory ([3]; 16 g ai/ha, scale of 0 to 100): 50; Kochia plant response rating ([4]; 31 g ai/ha): 100; Kochia plant response rating ([4]; 125 g ai/ha): 100; Ryegrass, Italian plant response rating ([5]; 31 g ai/ha): 20; Ryegrass, Italian plant response rating ([5]; 125 g ai/ha): 60; Ragweed plant response rating ([6]; 31 g ai/ha): 0; Ragweed plant response rating ([6]; 125 g ai/ha): 0; Corn plant response rating [7, 20]: 10; Wheat plant response rating ([8]; 31 g ai/ha): 0; Wheat plant response rating ([8]; 125 g ai/ha): 10; Blackgrass plant response rating [9, 20]: 20; Pigweed plant response rating ([10]; 31 g ai/ha): 100; Pigweed plant response rating ([10]; 125 g ai/ha): 100; Galium plant response rating [11, 20]: 90; Barnyardgrass plant response rating [12, 20]: 30; Foxtail, Giant plant response rating [13, 20]: 30; Plant response rating, Kochia [14, 21]: 80; Plant response rating, Pigweed [15, 21]: 100
CCCCC(=O)c1c(Br)cccc1Oc1ncc(Cl)cn1 [Compound 79]	80	90	98	90	95	98	20	30	30	80	50	90	90	80	80	100	45	100	90	60	Plant response rating, Kochia ([1]; 16 g ai/ha, scale of 0 to 100): 75; Plant response rating, Chickweed ([2]; 16 g ai/ha, scale of 0 to 100): 95; Plant response rating, Morningglory ([3]; 16 g ai/ha, scale of 0 to 100): 10; Kochia plant response rating ([4]; 125 g ai/ha): 100; Kochia plant response rating (0 to 100 scale) ([4]; 500 g ai/ha): 100; Ryegrass, Italian plant response rating ([5]; 125 g ai/ha): 90; Ryegrass, Italian plant response rating (0 to 100 scale) ([5]; 500 g ai/ha): 90; Ragweed plant response rating ([6]; 125 g ai/ha): 30; Ragweed plant response rating (0 to 100 scale) ([6]; 500 g ai/ha): 40; Corn plant response rating (0 to 100 scale) ([7]; 500 g ai/ha): 90; Wheat plant response rating ([8]; 125 g ai/ha): 20; Wheat plant response rating (0 to 100 scale) ([8]; 500 g ai/ha): 30; Blackgrass plant response rating (0 to 100 scale) ([9]; 500 g ai/ha): 90; Pigweed plant response rating ([10]; 125 g ai/ha): 100; Pigweed plant response rating (0 to 100 scale) ([10]; 500 g ai/ha): 100; Galium plant response rating (0 to 100 scale) ([11]; 500 g ai/ha): 100; Barnyardgrass plant response rating (0 to 100 scale) ([12]; 500 g ai/ha): 100; Foxtail, Giant plant response rating (0 to 100 scale) ([13]; 500 g ai/ha): 80; Kochia plant response rating ([14]; 500 g ai/ha): 100; Pigweed plant response rating ([15]; 500 g ai/ha): 100
